Assays:
SH-SY5Y cells = experiment: Total ROS production (H2DCFDA) in SH-SY5Y cells under R/O; assay type: cell-based; conditions: 0.1, 1 and 10 µM; R/O 6 h
Experimental: ROS production was evaluated using the fluorescent dye H2DCFDA [20]. Briefly, after deacetylation inside the cell, the H2DCF derivative is able to react with oxygen-free radicals and is transformed into dichlorofluorescein, increasing its fluorescence intensity. SH-SH5Y cells were seeded in 96-well clear-bottom black plates 6 × 10^4 cells/well. After 24 h, cells were treated with compound 3i at the desired concentrations for 24 h. Treatments were then eliminated and the cells were loaded with H2DCFDA (10 μM) for 45 min. […] Fluorescence was evaluated in a fluorescence microplate reader (Fluostar optima; BMG Labtech, Ortenberg, Baden-Württemberg, Germany) at 485/520 excitation/emission wavelengths, respectively. […]
To further evaluate its mechanism of action, and considering the importance of exacerbated oxidative stress in neurodegenerative diseases, we evaluated its capacity to reduce free radical species production using the above-mentioned R/O toxic combination to generate ROS and measure the influence of 3i in the total ROS production by using the H2DCFDA dye, and also the specific superoxide production by using the selective dye dihydroetidium (DHE). […]

[1] = target: AChE (Electrophorus electricus) (Electrophorus electricus, UniProt O42275); experiment: Acetylcholinesterase inhibition (Ellman's method); assay type: biochemical; conditions: 10 μM compound; read-out: % Inhibition of EeAChE at 10 μM
Experimental: Ellman’s method was employed to determine the inhibitory capacity of the compounds against AChE (Electrophorus electricus). The compounds were studied at 10 μM concentration, at room temperature, using PBS (0.1 M, pH 8) as solvent. Transparent 48-well microplates (COSTAR 3548) were used and, in each one, a blank was included. The compounds were incubated with the enzyme (0.09 U/mL) and with DTNB (0.35 mM) for 10 min. Afterwards, the enzyme substrate acetylthiocholine (0.35 mM) was added to a final volume of 1 mL. The microplate was incubated at room temperature for 15 min. Then, the absorbance was measured at 420 nm using the microplate reader FluoStar Optima (BMG Labtech, Ortenberg, Baden-Württemberg, Germany). The enzymatic activity was calculated by subtracting the blank absorbance from the sample absorbance and dividing the result by the absorbance of the maximum activity subtracted from blank absorbance, and the result was multiplied by one hundred to give a percentage. The inhibitory activity was calculated by subtracting the enzymatic activity from one hundred. Selected compounds were assayed at 0.3, 1, 3, 10, and 30 μM concentrations to obtain inhibition curves. The results were plotted versus concentration to obtain IC50 values through sigmoidal non-lineal adjustment. All the experiments were performed at least in triplicate.
Bisavenanthramide B-6 and heliotropamide A have been identified as acetylcholinesterase inhibitors. This precedent, coupled with our interest in the potential characterization of our compounds as multitarget-directed ligands, led us to investigate them as inhibitors of this enzyme, an important anti-Alzheimer target.

[2] = DPPH radical scavenging assay
Experimental: The direct antioxidant effects of compounds 3 were investigated by studying their radical-scavenging effect on the 2,2-diphenyl-1-picrylhydrazyl free radical (DPPH^•). Thus, a 100 μL volume of a methanol solution of each compound was added to 200 μL of 100 μM methanolic DPPH^•, and the solution was kept in the dark at 37 °C for 30 min in a 96-well microliter plate. After this incubation, the absorption at 490 nm of each solution was measured with a microplate reader in order to quantitate its decrease. A blank reading was also taken to calculate the amount of remaining DPPH^•. The radical-scavenging activity exerted by compounds 3 was determined by comparison with a 10 μL of MeOH-treated blank group. Ascorbic acid, a well-known antioxidant acting as a radical scavenger, was used as reference. All samples were analyzed in triplicate. Percent inhibition of the DPPH^• radical was calculated using the equation shown below, where AbsCtrl is the absorbance of the blank group and Abss is the absorbance of the samples containing compounds 3. For each compound showing a percentage of inhibition above 60%, the IC50 value was determined using a dose–response curve obtained from measurements corresponding to at least six concentrations. %Scavenger=AbsCtrl−AbsS/AbsCtrl×100
The radical scavenging activity of all compounds was first studied by the DPPH assay, which measures the ability of antioxidant compounds to donate a hydrogen atom to the violet 2,2-diphenyl-1-picrylhydrazyl radical and transform it into a nonradical species. Thus, it is generally considered to belong to the hydrogen atom transfer (HAT) category of methods for measurement of antioxidant activity.

[3] = system: neuroblastoma SHSY5Y cells; experiment: Cytotoxicity in SHSY5Y cells (MTT reduction); assay type: cell-based
Experimental: SH-SY5Y cells (ECACC 94030304, Porton Down, Salisbury, UK), from passages between 4 and 16 after defreezing, were maintained in a MEM/F12 containing […] nonessential amino acids and supplemented with 10% fetal bovine serum (FBS), glutamine 1 mM, 50 units/mL of penicillin, and 50 μg/mL of streptomycin (GIBCO, Madrid, Spain). Cells were harvested in a […] flask and incubated at 37 °C with wet atmosphere and 5% CO2, carrying out passages 1:4 twice a week. For neuroprotection experiments, cells were seeded in 96-well plates at a density of 60,000 cells/well. For the toxicity experiments, cells were treated with the compounds under assay before reaching confluence, in MEM/F12 with 1% FBS.
Due to their presumed electrophilicity, the neurotoxicity of our compounds was investigated by investigating their influence on cell viability in the neuroblastoma SHSY5Y cell line prior to other studies in cell cultures. […] It is relevant to note that, despite their reputation for toxicity, interest in covalent drugs has undergone a renaissance, and about 30% of the recently marketed drugs belong to this class.

AChE (Electrophorus electricus), sequence (O42275 24-633): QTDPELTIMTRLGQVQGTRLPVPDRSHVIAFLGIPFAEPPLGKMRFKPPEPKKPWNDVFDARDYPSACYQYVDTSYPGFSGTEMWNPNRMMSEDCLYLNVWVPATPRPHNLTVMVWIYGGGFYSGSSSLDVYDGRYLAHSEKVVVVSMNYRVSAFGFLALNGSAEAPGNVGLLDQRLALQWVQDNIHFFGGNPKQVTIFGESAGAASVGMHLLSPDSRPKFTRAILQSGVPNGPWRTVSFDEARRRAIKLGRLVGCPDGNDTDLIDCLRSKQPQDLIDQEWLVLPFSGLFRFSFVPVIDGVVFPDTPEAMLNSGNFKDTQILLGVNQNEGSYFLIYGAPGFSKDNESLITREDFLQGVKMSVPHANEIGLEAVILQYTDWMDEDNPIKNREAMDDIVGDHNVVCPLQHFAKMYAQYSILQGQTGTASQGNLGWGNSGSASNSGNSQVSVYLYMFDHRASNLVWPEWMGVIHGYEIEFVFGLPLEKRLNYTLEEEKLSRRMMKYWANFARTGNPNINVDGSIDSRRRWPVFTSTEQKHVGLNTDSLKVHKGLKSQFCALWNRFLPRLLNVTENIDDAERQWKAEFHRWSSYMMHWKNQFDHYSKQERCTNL

COC(=O)C1=C(C)N(CCc2ccccc2)C(=O)/C1=C\c1ccc(O)c(O)c1 [Compound 3i, Methyl (Z)-4-(3,4-Dihydroxybenzylidene)-2-methyl-5-oxo-1-phenethyl-4,5-dihydro-1H-pyrrole-3-carboxylate]
total ROS production (H2DCFDA) (SH-SY5Y cells): reduce ROS production almost to basal levels at all concentrations tested
inhibition at 10 µM [1]: 27.2%
radical scavenging activity in the DPPH assay [2]: high radical scavenging activity
DPPH Scavenging at 0.1 mM, % ([2]; 0.1 mM compound): 90.9 ± 0.5%
IC50 ([2]; n in brackets): 7.5 ± 0.4 µM
toxicity assessment [3]: suitable toxicity profile
LD50 ([3]; MTT reduction): 92.8 ± 4.6 µM

Source: paper PMC8230565, “Bisavenathramide Analogues as Nrf2 Inductors and Neuroprotectors in In Vitro Models of Oxidative Stress and Hyperphosphorylation” (Antioxidants, 2021)
